Target: InhA (Mtb enoyl-acyl-carrier-protein reductase) (Mycobacterium tuberculosis, UniProt P9WGR1)
Assay: InhA enzyme inhibition assay, % inhibition at […] without pre-incubation
Assay type: biochemical
Settings: read-out: % inhibition at 100 nM

InhA (Mtb enoyl-acyl-carrier-protein reductase), sequence (P9WGR1 whole entry, looked up): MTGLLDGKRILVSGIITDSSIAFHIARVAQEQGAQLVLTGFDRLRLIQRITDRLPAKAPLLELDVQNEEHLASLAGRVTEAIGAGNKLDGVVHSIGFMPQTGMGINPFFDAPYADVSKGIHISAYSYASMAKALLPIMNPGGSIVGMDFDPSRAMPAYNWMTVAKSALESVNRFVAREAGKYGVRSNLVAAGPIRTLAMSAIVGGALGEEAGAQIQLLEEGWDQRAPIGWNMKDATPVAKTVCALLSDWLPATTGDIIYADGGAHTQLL

## CCCCCCc1ccc(Oc2ccccc2C)c(O)c1 [PT70]
  inhibition at 0.1 µM: 75%

Source: article PMC4386068 (Journal of chemical information and modeling, 2015)
